Laboratory results: PMC9082326 (RSC Advances, 2019)
Like-named read-outs stand apart in the source and are kept apart here.

Tests used:
[1] = system: Pneumocystis; conditions: cited from earlier work
[2] = system: mammalian cell lines; conditions: cited from earlier work
[3] = target: T1, hERG (Homo sapiens, UniProt Q12809); assay: Western blot of hERG maturation; type: cell-based; conditions: 24 h, HEK-hERG; for hERG maturation (mature/immature ratio), dose–response: 0.5–20 μM
[4] = target: T1, hERG; assay: Immunofluorescence microscopy of hERG localization in HEK-hERG cells; type: cell-based; conditions: 24 h, pentamidine 10 μM, analogues 10 μM

T1 sequence (Q12809 whole entry): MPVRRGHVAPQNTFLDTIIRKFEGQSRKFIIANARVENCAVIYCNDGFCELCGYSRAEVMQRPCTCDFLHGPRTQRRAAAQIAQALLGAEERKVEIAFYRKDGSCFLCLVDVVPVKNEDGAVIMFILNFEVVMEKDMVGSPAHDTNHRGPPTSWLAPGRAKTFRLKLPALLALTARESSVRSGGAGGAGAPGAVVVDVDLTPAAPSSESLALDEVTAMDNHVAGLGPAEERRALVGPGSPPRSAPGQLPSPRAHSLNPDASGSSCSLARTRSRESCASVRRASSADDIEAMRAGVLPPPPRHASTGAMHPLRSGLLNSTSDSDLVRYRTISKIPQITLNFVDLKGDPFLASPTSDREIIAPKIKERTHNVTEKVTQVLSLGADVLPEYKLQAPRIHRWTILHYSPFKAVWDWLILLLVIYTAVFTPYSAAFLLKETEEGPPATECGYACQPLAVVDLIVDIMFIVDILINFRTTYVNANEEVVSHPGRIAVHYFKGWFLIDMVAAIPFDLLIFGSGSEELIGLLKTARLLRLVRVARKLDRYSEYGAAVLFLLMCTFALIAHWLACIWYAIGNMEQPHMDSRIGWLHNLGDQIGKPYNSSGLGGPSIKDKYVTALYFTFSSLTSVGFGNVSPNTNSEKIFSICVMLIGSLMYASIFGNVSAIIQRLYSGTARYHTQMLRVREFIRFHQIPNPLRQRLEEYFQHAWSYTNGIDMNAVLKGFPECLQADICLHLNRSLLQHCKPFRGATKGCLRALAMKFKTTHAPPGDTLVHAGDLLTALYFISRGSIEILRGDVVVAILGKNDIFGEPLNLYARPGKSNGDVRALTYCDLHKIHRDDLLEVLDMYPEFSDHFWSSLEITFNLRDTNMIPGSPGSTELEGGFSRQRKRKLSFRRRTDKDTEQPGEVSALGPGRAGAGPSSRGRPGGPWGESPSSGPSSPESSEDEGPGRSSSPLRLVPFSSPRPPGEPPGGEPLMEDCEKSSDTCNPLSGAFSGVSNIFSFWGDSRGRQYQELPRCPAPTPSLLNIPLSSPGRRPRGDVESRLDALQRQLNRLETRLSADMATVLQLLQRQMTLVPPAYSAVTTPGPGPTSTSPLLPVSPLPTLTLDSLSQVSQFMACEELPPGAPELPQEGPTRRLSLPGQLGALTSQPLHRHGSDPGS

| SMILES | hERG maturation (mature/immature ratio), dose–response [3] | subcellular localization / membrane expression of hERG [4] | cytotoxicity ([2]; mammalian cell lines) | other results |
| --- | --- | --- | --- | --- |
| Cc1cc(C(=N)N)cc(C)c1OCCN(CCOc1c(C)cc(C(=N)N)cc1C)S(=O)(=O)c1ccccc1.Cl.Cl [3-phenylsulfonyl-1,5-bis(4-amidino-2,6-dimethylphenoxy)-3-azapentane dihydrochloride, reference compound] | – | – | – | anti-Pneumocystis activity [1]: promising activity; cytotoxicity [2]: very low cytotoxicity |
| Cl.Cl.N=C(N)c1ccc(OCCSCCOc2ccc(C(=N)N)cc2)cc1 [Compound 1, 1,5-bis(4-amidinophenoxy)-3-thiapentane dihydrochloride] | dose-dependently decreased | pattern comparable with control cells and clear membrane staining was detected | less or moderate cytotoxicity | – |
| Cl.Cl.N=C(N)c1ccc(SCCOCCSc2ccc(C(=N)N)cc2)cc1 [Compound 2, 1,5-bis[4-(amidino)phenylthio]-3-oxapentane dihydrochloride] | dose-dependently decreased | pattern comparable with control cells and clear membrane staining was detected | – | – |
| Cl.Cl.c1cc(C2=NCCN2)ccc1OCCSCCOc1ccc(C2=NCCN2)cc1 [Compound 4, 1,5-bis[4-(4,5-dihydro-2-imidazolyl)phenoxy]-3-thiapentane dihydrochloride] | – | – | less or moderate cytotoxicity | – |
| CN(CCOc1ccc(NS(C)(=O)=O)cc1)CCc1ccc(NS(C)(=O)=O)cc1 [Dofetilide, reference compound] | – | – | – | hERG maturation (mature/immature ratio) ([3]; pentamidine 10 μM, dofetilide 1 μM, analogues 1 and 10 μM): increases |
